The Ki is the dissociation constant of the complex between target and ligand, obtained from inhibition or displacement. A higher Ki goes with lower affinity.

We go through 8 compounds from ChEMBL document CHEMBL1142318, “Azetidine based transition state analogue inhibitors of N-ribosyl hydrolases and phosphorylases” (J Med Chem, 2008).

The target in assay [1] is T1, Purine nucleoside phosphorylase (Plasmodium falciparum, UniProt Q8T9Z7).
T1 sequence (Q8T9Z7 whole entry): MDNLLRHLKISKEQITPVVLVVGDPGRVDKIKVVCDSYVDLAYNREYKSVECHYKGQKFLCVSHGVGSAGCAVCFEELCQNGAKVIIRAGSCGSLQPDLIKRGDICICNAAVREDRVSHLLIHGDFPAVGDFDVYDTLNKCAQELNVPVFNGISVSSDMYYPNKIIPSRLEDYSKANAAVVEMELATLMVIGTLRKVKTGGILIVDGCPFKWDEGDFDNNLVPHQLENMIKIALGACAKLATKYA
Briefly: Inhibition of Plasmodium falciparum PNP.

Assay [2] has as its target T2, S-methyl-5'-thioadenosine phosphorylase (Homo sapiens, UniProt Q13126).
T2 sequence (Q13126 whole entry): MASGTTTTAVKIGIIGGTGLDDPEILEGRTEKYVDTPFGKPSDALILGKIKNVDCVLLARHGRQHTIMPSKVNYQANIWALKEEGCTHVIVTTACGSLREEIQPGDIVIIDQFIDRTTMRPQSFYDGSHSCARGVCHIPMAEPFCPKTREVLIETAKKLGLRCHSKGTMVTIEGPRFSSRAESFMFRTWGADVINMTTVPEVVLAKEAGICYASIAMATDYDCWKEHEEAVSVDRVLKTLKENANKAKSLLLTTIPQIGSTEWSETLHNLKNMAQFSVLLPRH
The assay can be described thus: Inhibition of human MTAP.

Assay [3] deals with 5'-methylthioadenosine/S-adenosylhomocysteine nucleosidase (Escherichia coli O157:H7, UniProt P0AF14).
5'-methylthioadenosine/S-adenosylhomocysteine nucleosidase (Escherichia coli O157:H7, UniProt P0AF14), sequence (P0AF14 whole entry): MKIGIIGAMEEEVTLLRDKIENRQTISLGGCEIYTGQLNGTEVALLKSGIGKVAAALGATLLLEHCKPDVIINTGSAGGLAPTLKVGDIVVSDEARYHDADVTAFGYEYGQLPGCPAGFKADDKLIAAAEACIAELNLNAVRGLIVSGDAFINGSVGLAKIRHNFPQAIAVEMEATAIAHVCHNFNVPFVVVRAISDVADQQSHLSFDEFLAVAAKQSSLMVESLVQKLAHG
The target in assay [4] is T3, 5'-methylthioadenosine/S-adenosylhomocysteine nucleosidase (Streptococcus pneumoniae serotype 4 (strain ATCC BAA-334 / TIGR4), UniProt A0A0H2UPP7).
T3 sequence (A0A0H2UPP7 whole entry): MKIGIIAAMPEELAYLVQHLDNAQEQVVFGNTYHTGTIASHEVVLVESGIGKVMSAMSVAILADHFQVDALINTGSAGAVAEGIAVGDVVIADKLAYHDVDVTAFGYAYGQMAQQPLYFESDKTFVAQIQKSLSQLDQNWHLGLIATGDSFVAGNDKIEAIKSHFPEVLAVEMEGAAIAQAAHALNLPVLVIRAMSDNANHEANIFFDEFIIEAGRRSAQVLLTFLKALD
Briefly: Inhibition of Streptococcus pneumoniae MTAN.

Assay [5] deals with T4, Purine nucleoside phosphorylase (Bos taurus, UniProt P55859).
T4 sequence (P55859 whole entry): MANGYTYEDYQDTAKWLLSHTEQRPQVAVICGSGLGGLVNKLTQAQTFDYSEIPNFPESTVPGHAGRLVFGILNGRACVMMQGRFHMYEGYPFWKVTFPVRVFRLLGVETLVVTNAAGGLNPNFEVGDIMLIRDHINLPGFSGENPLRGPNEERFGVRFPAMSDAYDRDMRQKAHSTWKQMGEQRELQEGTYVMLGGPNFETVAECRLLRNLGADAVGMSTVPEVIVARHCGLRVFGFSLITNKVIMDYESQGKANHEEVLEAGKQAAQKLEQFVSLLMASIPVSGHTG
Briefly: Inhibition of bovine PNP.

The target in assay [6] is T5, Purine nucleoside phosphorylase (Homo sapiens, UniProt P00491).
T5 sequence (P00491 whole entry): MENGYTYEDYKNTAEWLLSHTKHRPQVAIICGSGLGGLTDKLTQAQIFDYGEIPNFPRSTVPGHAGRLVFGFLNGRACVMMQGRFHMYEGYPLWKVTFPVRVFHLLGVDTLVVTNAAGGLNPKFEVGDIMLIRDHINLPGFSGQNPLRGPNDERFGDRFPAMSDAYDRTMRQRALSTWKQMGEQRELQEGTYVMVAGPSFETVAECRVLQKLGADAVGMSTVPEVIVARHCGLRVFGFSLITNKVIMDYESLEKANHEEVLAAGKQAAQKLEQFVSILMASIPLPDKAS
Briefly: Inhibition of human PNP.

In assay [1], `O=c1[nH]cnc2c(CN3CC(CO)C3)c[nH]c12` had a Ki of more than 10000 nM.

Regarding `CSC[C@H]1CN(Cc2c[nH]c3c(N)ncnc23)C[C@@H]1O`, the Ki in assay [2] worked out at 0.09 nM; in assay [3], 0.002 nM; in assay [4], 24 nM.

`CSCC1CN(Cc2c[nH]c3c(N)ncnc23)C1`: the Ki in assay [3] came out at 0.45 nM; in assay [4], 84 nM.

On to `O=c1[nH]cnc2c(CN3C(CO)CC3CO)c[nH]c12` (stereo not drawn), for which the inhibition constant Ki in assay [5] stood at 16 nM; in assay [6] it was 12.9 nM; in assay [1] it was 1290 nM.

In the case of `CSCC1(CO)CN(Cc2c[nH]c3c(N)ncnc23)C1`, the results for the Ki in assay [3] and in assay [4] were 0.84 nM and 150 nM, respectively.

The compound `O=c1[nH]cnc2c(CN3CC(CO)(CO)C3)c[nH]c12` showed a Ki in assay [1] of more than 10000 nM.

Regarding `O=c1[nH]cnc2c(CN3[C@@H](CO)C[C@@H]3CO)c[nH]c12` (racemic), the Ki in assay [5] is 360 nM; in assay [6], 280 nM; in assay [1], 580 nM.

`O=c1[nH]cnc2c(CN3C[C@H](CO)[C@@H](O)C3)c[nH]c12` [ULODESINE]: the Ki in assay [5] came to 0.1 nM; in assay [6] it was 0.0107 nM; in assay [1] it was 0.5 nM.
